From ChEMBL document CHEMBL1129809, “N-linked glycoside/glucuronide conjugates of retinoids: acitretin” (1997)

Key:
Format in all cases: functional, Homo sapiens
[1] = system: MCF7; test: Antiproliferative activity on MCF-7 Cell Growth was determined by measuring [3H]thymidine incorporation at the concentration of 0.1 nM
[2] = system: MCF7; test: Antiproliferative activity on MCF-7 Cell Growth was determined by measuring [3H]thymidine incorporation at the concentration of 10 nM
[3] = system: MCF7; test: Antiproliferative activity on MCF-7 Cell Growth was determined by measuring [3H]thymidine incorporation at the concentration of 1 uM

| Compound | Control [1] | Control [2] | Control [3] |
| --- | --- | --- | --- |
| COc1cc(C)c(/C=C/C(C)=C/C=C/C(C)=C/C(=O)NC2OC(CO)C(O)C(O)C2O)c(C)c1C (centres undefined) | >50% | >100% | >100% |
| COc1cc(C)c(/C=C/C(C)=C/C=C/C(C)=C/C(=O)NC2OC(C(=O)O)C(O)C(O)C2O)c(C)c1C (centres undefined) | <50% | >50% | <50% |
| COc1cc(C)c(/C=C/C(C)=C/C=C/C(C)=C/C(=O)O)c(C)c1C [ACITRETIN] | >50% | >50% | <50% |
